Data on 32 compounds can be found in BindingDB's records for PubMed 34170694 (China Pharmaceutical University, 2021).

Each structure is given as a SMILES string.

One may read the EC50 as the midpoint of the concentration-response curve. Low values mean a more potent agent, high ones a less potent agent.

One experiment deals with T1, Caspase-3 (Homo sapiens, UniProt P42574).
T1 sequence (P42574 whole entry): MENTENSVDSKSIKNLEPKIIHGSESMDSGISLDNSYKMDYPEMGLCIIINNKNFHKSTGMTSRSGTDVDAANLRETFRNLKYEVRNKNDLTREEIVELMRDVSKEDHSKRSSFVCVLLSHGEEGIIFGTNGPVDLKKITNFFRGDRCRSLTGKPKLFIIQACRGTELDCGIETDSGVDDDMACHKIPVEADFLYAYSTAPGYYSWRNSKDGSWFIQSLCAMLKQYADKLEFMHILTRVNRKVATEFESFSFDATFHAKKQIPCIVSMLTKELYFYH
The experiment in a line: Activation of caspase 3 in human MDA-MB-231 cells measured after 48 hrs by Plate reader method.
As to `C=c1c(O)c(O)cc2c1=CC=C1[C@@]2(C)CC[C@@]2(C)[C@@H]3C[C@](C)(C(=O)O)CC[C@]3(C)CC[C@]12C`, the concentration giving a half-maximal response (EC50) worked out at 1.4 µM.

Target in another experiment: not listed separately
Nature of the experiment: Activation of caspase 3 in human MDA-MB-231 cells measured after 48 hrs by Plate reader method.
Take `C#CCOC(=O)[C@]1(C)CC[C@]2(C)CC[C@]3(C)C4=CC=C5C(=CC(=O)C(OC(=O)N6CCCC6)=C5C)[C@]4(C)CC[C@@]3(C)[C@@H]2C1`: the half-maximal effective concentration (EC50) came out at 24.3 µM.
On the same count and under the same terms, to `C#CCOC(=O)[C@]1(C)CC[C@]2(C)CC[C@]3(C)C4=CC=C5C(=CC(=O)C(OC(=O)N(C)CC)=C5C)[C@]4(C)CC[C@@]3(C)[C@@H]2C1` belongs 18.7 µM.
The same measure, in the same setting: for `C#CCOC(=O)[C@]1(C)CC[C@]2(C)CC[C@]3(C)C4=CC=C5C(=CC(=O)C(OC(=O)N(CC)CC)=C5C)[C@]4(C)CC[C@@]3(C)[C@@H]2C1` the value was 20.4 µM.
Same read-out and setting: to `C#CCOC(=O)[C@]1(C)CC[C@]2(C)CC[C@]3(C)C4=CC=C5C(=CC(=O)C(OC(=O)c6ccc(F)cc6)=C5C)[C@]4(C)CC[C@@]3(C)[C@@H]2C1` belongs 21.2 µM; to `C#CCOC(=O)[C@]1(C)CC[C@]2(C)CC[C@]3(C)C4=CC=C5C(=CC(=O)C(OC(=O)N6c7ccccc7Sc7ccccc76)=C5C)[C@]4(C)CC[C@@]3(C)[C@@H]2C1`, 18.5 µM.
`C#CCOC(=O)[C@]1(C)CC[C@]2(C)CC[C@]3(C)C4=CC=C5C(=CC(=O)C(OC(=O)C=C)=C5C)[C@]4(C)CC[C@@]3(C)[C@@H]2C1` yielded an EC50 of 22.1 µM.
Still for that read-out and setting: for `C#CCOC(=O)[C@]1(C)CC[C@]2(C)CC[C@]3(C)C4=CC=C5C(=CC(=O)C(OC(=O)N6c7ccccc7CCc7ccccc76)=C5C)[C@]4(C)CC[C@@]3(C)[C@@H]2C1` the value was 10 µM; for `C#CCOC(=O)[C@]1(C)CC[C@]2(C)CC[C@]3(C)C4=CC=C5C(=CC(=O)C(OC(=O)C(=C)C)=C5C)[C@]4(C)CC[C@@]3(C)[C@@H]2C1`, 14.9 µM; for `C#CCOC(=O)[C@]1(C)CC[C@]2(C)CC[C@]3(C)C4=CC=C5C(=CC(=O)C(OC(=O)c6ccc(Br)cc6)=C5C)[C@]4(C)CC[C@@]3(C)[C@@H]2C1`, 16.4 µM.
`C#CCOC(=O)[C@]1(C)CC[C@]2(C)CC[C@]3(C)C4=CC=C5C(=CC(=O)C(OC(=O)N6CCN(c7ccccc7Cl)CC6)=C5C)[C@]4(C)CC[C@@]3(C)[C@@H]2C1` gave a half-maximal effective concentration (EC50) of 20.3 µM.
Same read-out and setting: to `C#CCOC(=O)[C@]1(C)CC[C@]2(C)CC[C@]3(C)C4=CC=C5C(=CC(=O)C(OC(=O)N(C)CCC)=C5C)[C@]4(C)CC[C@@]3(C)[C@@H]2C1` belongs 20.5 µM.
Same read-out and setting: for `C#CCOC(=O)[C@]1(C)CC[C@]2(C)CC[C@]3(C)C4=CC=C5C(=CC(=O)C(OC(=O)N(C)CCCC)=C5C)[C@]4(C)CC[C@@]3(C)[C@@H]2C1` the value was 20.3 µM.
On the same count and under the same terms, to `C#CCOC(=O)[C@]1(C)CC[C@]2(C)CC[C@]3(C)C4=CC=C5C(=CC(=O)C(OC(=O)N6CCN(c7ccccc7OC)CC6)=C5C)[C@]4(C)CC[C@@]3(C)[C@@H]2C1` belongs 18.2 µM.
With `C#CCOC(=O)[C@]1(C)CC[C@]2(C)CC[C@]3(C)C4=CC=C5C(=CC(=O)C(OC(=O)/C=C/c6ccccc6F)=C5C)[C@]4(C)CC[C@@]3(C)[C@@H]2C1`, the EC50 was 14.1 µM.
For `C#CCOC(=O)[C@]1(C)CC[C@]2(C)CC[C@]3(C)C4=CC=C5C(=CC(=O)C(OC(=O)N6CCN(c7cccc(OC)c7)CC6)=C5C)[C@]4(C)CC[C@@]3(C)[C@@H]2C1`, a half-maximal effect (EC50) was put at 19.6 µM.
`C#CCOC(=O)[C@]1(C)CC[C@]2(C)CC[C@]3(C)C4=CC=C5C(=CC(=O)C(OC(=O)N6CCCCC6)=C5C)[C@]4(C)CC[C@@]3(C)[C@@H]2C1` yielded an EC50 of 24.1 µM.
On the same count and under the same terms, to `C#CCOC(=O)[C@]1(C)CC[C@]2(C)CC[C@]3(C)C4=CC=C5C(=CC(=O)C(OC(=O)N6c7ccccc7C=Cc7ccccc76)=C5C)[C@]4(C)CC[C@@]3(C)[C@@H]2C1` belongs 23.1 µM.
As to `C#CCOC(=O)[C@]1(C)CC[C@]2(C)CC[C@]3(C)C4=CC=C5C(=CC(=O)C(OC(=O)N(C)C)=C5C)[C@]4(C)CC[C@@]3(C)[C@@H]2C1`, a half-maximal effect (EC50) was put at 23.9 µM.
Still for that read-out and setting: for `C#CCOC(=O)[C@]1(C)CC[C@]2(C)CC[C@]3(C)C4=CC=C5C(=CC(=O)C(OC(=O)N6CCN(c7ccccc7)CC6)=C5C)[C@]4(C)CC[C@@]3(C)[C@@H]2C1` the value was 19.3 µM; for `C#CCOC(=O)[C@]1(C)CC[C@]2(C)CC[C@]3(C)C4=CC=C5C(=CC(=O)C(OC(=O)N(c6ccccc6)c6ccccc6)=C5C)[C@]4(C)CC[C@@]3(C)[C@@H]2C1`, 19.9 µM.
Take `C#CCOC(=O)[C@]1(C)CC[C@]2(C)CC[C@]3(C)C4=CC=C5C(=CC(=O)C(OC(=O)N6CCN(c7ccc(Cl)cc7)CC6)=C5C)[C@]4(C)CC[C@@]3(C)[C@@H]2C1`: a half-maximal effect (EC50) was put at 20.1 µM. The EC50 values of the last two compounds are within 1.5-fold of each other.
On the same count and under the same terms, to `C#CCOC(=O)[C@]1(C)CC[C@]2(C)CC[C@]3(C)C4=CC=C5C(=CC(=O)C(OC(=O)/C=C/c6ccccc6)=C5C)[C@]4(C)CC[C@@]3(C)[C@@H]2C1` belongs 20.1 µM; to `C#CCOC(=O)[C@]1(C)CC[C@]2(C)CC[C@]3(C)C4=CC=C5C(=CC(=O)C(OC(C)=O)=C5C)[C@]4(C)CC[C@@]3(C)[C@@H]2C1`, 19.3 µM.
The same measure, in the same setting: for `C#CCOC(=O)[C@]1(C)CC[C@]2(C)CC[C@]3(C)C4=CC=C5C(=CC(=O)C(OC(=O)N6CCN(C)CC6)=C5C)[C@]4(C)CC[C@@]3(C)[C@@H]2C1` the value was 20.5 µM.
On the same count and under the same terms, for `C#CCOC(=O)[C@]1(C)CC[C@]2(C)CC[C@]3(C)C4=CC=C5C(=CC(=O)C(OC(=O)CCC)=C5C)[C@]4(C)CC[C@@]3(C)[C@@H]2C1` the value was 20.9 µM; for `C#CCOC(=O)[C@]1(C)CC[C@]2(C)CC[C@]3(C)C4=CC=C5C(=CC(=O)C(OC(=O)N(CCCC)CCCC)=C5C)[C@]4(C)CC[C@@]3(C)[C@@H]2C1`, 22.3 µM.
Turning to `C#CCOC(=O)[C@]1(C)CC[C@]2(C)CC[C@]3(C)C4=CC=C5C(=CC(=O)C(OC(=O)/C=C/C)=C5C)[C@]4(C)CC[C@@]3(C)[C@@H]2C1`, the midpoint of the response, the EC50, lay at 19.7 µM. The EC50 values of the last two compounds are within 1.5-fold of each other.
In the case of `C#CCOC(=O)[C@]1(C)CC[C@]2(C)CC[C@]3(C)C4=CC=C5C(=CC(=O)C(OC(=O)/C=C/c6cccc(C)c6)=C5C)[C@]4(C)CC[C@@]3(C)[C@@H]2C1`, it took 17.8 µM to reach a half-maximal effect (EC50). This EC50 and that of the compound before are within 1.5-fold of each other.
Same read-out and setting: for `C#CCOC(=O)[C@]1(C)CC[C@]2(C)CC[C@]3(C)C4=CC=C5C(=CC(=O)C(OC(=O)/C=C/c6cccc(Cl)c6)=C5C)[C@]4(C)CC[C@@]3(C)[C@@H]2C1` the value was 15.7 µM; for `CC1=C(O)C(=O)C=C2C1=CC=C1[C@@]2(C)CC[C@@]2(C)[C@@H]3C[C@](C)(C(=O)OCc4ccccc4)CC[C@]3(C)CC[C@]12C`, 1.6 µM.
Still for that read-out and setting: for `C#CCOC(=O)[C@]1(C)CC[C@]2(C)CC[C@]3(C)C4=CC=C5C(=CC(=O)C(OC(=O)N(CCC)CCC)=C5C)[C@]4(C)CC[C@@]3(C)[C@@H]2C1` the value was 17.5 µM.
